Assay results reported in patent US5235061A, “Fungicidal (1H-1,2,4-triazolyl)disilaalkanes” (priority 1991, dated 1993).

Tests used:
Assay in all cases: In vitro percent disease control (radii of spore growth on agar)
Type in all cases: cell-based
[1] = test system: Botry tris cinerea; conditions: read-out: % controlled, Bo ci.
Outline: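 Compounds at 100 and 50 ppm (acetone 10% of final volume, rest water) mixed into potato-sucrose agar; Botrytis cinerea spotted at dish centre. After several days' incubation, percent disease control calculated from radii of spore growth.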

[2] = test system: Phytophthora capsisi; conditions: Phytophthora, read-out: % controlled, Phy ca.
Outline: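 Compounds dissolved in acetone (10% of final volume) then water at 100 ppm and 50 ppm, mixed into potato-sucrose-agar; fungus spotted at plate centre and incubated several days. Percent disease control derived from radii of spore growth.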

[3] = test system: Rhizopus sp.; conditions: Rhizopus, read-out: % controlled, Rhi. sp.
Outline: (§1)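 Compounds in acetone (10% of final volume) diluted with water to 100 and 50 ppm, then mixed into potato-sucrose-agar with each fungus spotted centrally. Incubated several days in a growth room; percent disease control derived from radii of spore growth.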

[4] = test system: Alternaria mali; conditions: Alternaria mali, read-out: % controlled, Al.
Outline: as §1

[5] = test system: Glomerella cingulata; conditions: Colletotrichum gloeosporioides, read-out: % controlled, Glo.
Outline: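 Compounds were dissolved in acetone (10% of final volume) plus water at 100 ppm and 50 ppm and mixed into potato-sucrose agar. G. cingulata was spotted centrally and incubated for several days in a growth room. Percent disease control was derived from the radii of spore growth.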

[6] = test system: Physalospora baccae; conditions: read-out: % controlled, Phy ba.
Outline: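 Compounds at 100 and 50 ppm (10% acetone) mixed into potato-sucrose-agar, fungus spotted centrally and grown several days in a growth room. Percent disease control derived from radii of spore growth.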

[7] = test system: Fusarium moniliforme
Outline: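 Compounds in 10% acetone/water at 100 and 50 ppm were mixed into potato-sucrose-agar, with Fusarium moniliforme spotted centrally. After several days' incubation, percent disease control was derived from radii of spore growth.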

[8] = test system: Botryosphaeria dothidea Macrophoma sp.; conditions: Botryosphaeria dothidea, read-out: % controlled, Bo.do (Ma.)
Outline: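 Compounds (100 and 50 ppm, 10% acetone in water) were mixed into potato-sucrose-agar and the fungus was spotted centrally, then incubated several days in a growth room. Percent disease control came from radii of spore growth.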

[9] = test system: Rhizoctonia solani; conditions: Rhizoctonia solani, read-out: % controlled, Rhy. so.
Outline: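 Test compounds at 100 ppm and 50 ppm (acetone 10% of final volume, then water) were mixed into potato-sucrose-agar, and the fungus was spotted at the dish centre. Dishes were incubated several days in a growth room. Percent disease control was derived from the radii of spore growth.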

[10] = test system: Pyricalaria oryzae
Outline: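 Compounds at 100 ppm and 50 ppm (10% acetone in water) mixed into potato-sucrose-agar, P. oryzae spotted centrally and incubated several days. Percent disease control derived from radii of spore growth.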

C=CC[Si](C[Si](C)(Cn1cncn1)c1ccc(F)cc1)(c1ccc(F)cc1)c1ccc(F)cc1 (centres unmarked) [4,4,6-tris(4-fluorophenyl)-6-methyl-4,6-disila-7-(1H-1,2,4-triazole-1-yl)-1-heptane]
inhibition of growth at 50 ppm ([1]; 50 ppm): 69%
inhibition of growth at 100 ppm ([1]; 100 ppm): 66%
inhibition of growth at 50 ppm ([2]; 50 ppm): 50%
inhibition of growth at 100 ppm ([2]; 100 ppm): 60%
inhibition of growth at 50 ppm ([3]; 50 ppm): 19%
inhibition of growth at 100 ppm ([3]; 100 ppm): 43%
inhibition of growth at 50 ppm ([4]; 50 ppm): 63%
inhibition of growth at 100 ppm ([4]; 100 ppm): 72%
inhibition of growth at 50 ppm ([5]; 50 ppm): 71%
inhibition of growth at 100 ppm ([5]; 100 ppm): 77%
inhibition of growth at 50 ppm ([6]; 50 ppm): 53%
inhibition of growth at 100 ppm ([6]; 100 ppm): 74%
% controlled, Fu. mo. ([7]; 50 ppm): 58%
% controlled, Fu. mo. ([7]; 100 ppm): 63%
inhibition of growth at 50 ppm ([8]; 50 ppm): 74%
inhibition of growth at 100 ppm ([8]; 100 ppm): 78%
inhibition of growth at 50 ppm ([9]; 50 ppm): 78%
inhibition of growth at 100 ppm ([9]; 100 ppm): 78%
inhibition of growth at 50 ppm ([10]; read-out: % controlled, Py. or., 50 ppm): 100%
inhibition of growth at 100 ppm ([10]; read-out: % controlled, Py. or., 100 ppm): 100%
